Measurements published in US4530791A, “β-Lactam antibiotics” (Kowa Co., Ltd., priority 1979, dated 1985).
Converted amounts (≈) assume the structure as drawn. Like-named read-outs stand apart in the source and are kept apart here.

Columns and labels:
[1] = cited from earlier work
[2] = Stability: half-life period at different values of pH (ultraviolet absorption spectroscopy); format: physicochemical; details: read-out: half-life period t1/2 (converted)
From the text: (11) Stability: The half-life period at different values of pH are as follows: […]
pH 4.0-7.0: Mcllvaine's buffer solution (sodium phosphate-citric acid) pH 10.0: 0.1M sodium carbonate-sodium hydrogen carbonate buffer solution […]
Ultraviolet absorption spectroscopy
(9) Stability: The half-life period at different values of pH are as follows:
The solvent and measurement are the same as in the substance KA-6643-A.

Solubility in solvent = format: physicochemical
Bacillus subtilis 6633 = experiment: Antibacterial spectrum (minimum inhibitory concentration); format: cell-based
From the text: (§1) The antibacterial spectra against various microorganisms are shown in Table 2 in comparison with those of aminobenzyl penicillin (AB-Pc) and cefoxitin (CFX).

Citrobacter 1 (PC ase) = experiment: as above; format: cell-based
From the text: as §1

Citrobacter 24 (CS ase) [3] = experiment: as above; format: cell-based
From the text: as §1

[4] = system: Enterobacter aerogenes 972; experiment: as above; format: cell-based; details: Klebsiella aerogenes
From the text: as §1

Enterobacter cloacae 977 = experiment: as above; format: cell-based
From the text: as §1

[5] = system: Escherichia coli EC-1 (PC ase I); experiment: as above; format: cell-based
From the text: as §1

[6] = system: Escherichia coli EC-59 (PC ase II); experiment: as above; format: cell-based
From the text: as §1

[7] = system: Escherichia coli EC-68 (PC ase IV); experiment: as above; format: cell-based
From the text: as §1

[8] = system: Excherichia coli NIHJ JC-2; experiment: as above; format: cell-based
From the text: as §1

Hafnia alvei 978 = experiment: as above; format: cell-based
From the text: as §1

Klebsiella 25 (PC ase) = experiment: as above; format: cell-based
From the text: as §1

Klebsiella 32 (CS ase) = experiment: as above; format: cell-based
From the text: as §1

[9] = system: Klebsiella pneumoniae 602; experiment: as above; format: cell-based
From the text: as §1

Proteus inconstans Km115 = experiment: as above; format: cell-based; details: Providencia alcalifaciens
From the text: as §1

Proteus morganii 3168 = experiment: as above; format: cell-based; details: Morganella morganii
From the text: as §1

Proteus rettgari 13501 = experiment: as above; format: cell-based
From the text: as §1

Proteus vulgaris 874 = experiment: as above; format: cell-based
From the text: as §1

[10] = system: Pseudomonas aeruginosa 10490; experiment: as above; format: cell-based
From the text: as §1

[11] = system: Pseudomonas aeruginosa A-3; experiment: as above; format: cell-based; details: A3
From the text: as §1

Pseudomonas putida 5121 = experiment: as above; format: cell-based
From the text: as §1

Serratia marcescens NHL = experiment: as above; format: cell-based
From the text: as §1

[12] = system: Staphylococcus aureus 209P JC-1; experiment: as above; format: cell-based
From the text: as §1

[13] = system: Staphylococcus epidermidis 1228; experiment: as above; format: cell-based
From the text: as §1

Citrobacter 24 (CS ase) [14] = experiment: Antibacterial activity-improving action against β-lactam-resistant bacteria (disc, inhibiting zone); format: cell-based; details: Medium including Citrobacter 24; AB-Pc 1 mg/ml, KA-6643-A or -B 10 γ/ml, alone or combined; 8 mm disc, 37° C., 18 hours
Protocol: (§2) In the Penassay agar (12 g of which was dissolved in 500 ml of distilled water, Kyoei Pharm. Co., Ltd.) were inoculated Escherichia coli EC-1 (PC ase) and citrobacter 24 (CS ase) which were β-lactamase-producing organisms, and 10 ml of the inoculated medium was flowed on a Petri dish of 9 cm in diameter and solidified to give a test medium.
(§3) In this agar medium were placed pulp discs of 8 mm in diameter into which was introduced with […] of aqueous solutions of antibiotics, respectively, followed by culturing at 37° C. for 18 hours and then measuring the diameter of an inhibiting zone around each disc.

[15] = system: Escherichia coli EC-1 (PC ase); experiment: as above; format: cell-based; details: Medium including E. coli EC-1; AB-Pc 1 mg/ml, KA-6643-A or -B 10 γ/ml, alone or combined; 8 mm disc, 37° C., 18 hours
Protocol: as §2, §3

[16] = molecular target: β-lactamase enzyme penicillin amidohydrolase EC 3.5.2.6; experiment: β-Lactamase-inhibitory activity; format: biochemical; details: method of C. Reading and M. Cole
Protocol: When using as β-lactamase enzyme penicillin amidohydrolase EC 3.5.2.6 (Tokyo Chem. Syn. Co., Ltd.) derived from bacteria belonging to the genus Bacillus, the I50 value of the substance KA-6643-A was 0.5 ng/ml and that of the substance KA-6643-B was 12.8 ng/ml.
The I50 value was measured in accordance with the method of C. Reading and M. Cole [Antimicr. Agents and Chemoth. 11, 852-857 (1977)].

[17] = mcilvaine's buffer, pH 4.0, Mcllvaine's buffer
[18] = mcilvaine's buffer, pH 6.0, Mcllvaine's buffer
[19] = mcilvaine's buffer, pH 7.0, Mcllvaine's buffer
[20] = pH 10.0, 0.1M sodium carbonate-sodium hydrogen carbonate buffer
[21] = organic solvents: acetone, chloroform, ethyl acetate, petroleum ether

## CC(=O)N/C=C/[S+]([O-])C1=C(C(=O)O)N2C(=O)C(C(C)OS(=O)(=O)O)C2C1 (stereo not shown) [MM-4550]
[1]; pH 4
  half-life period t1/2: 5.5 h
[1]; pH 6
  half-life period t1/2: 18 h
[1]; pH 7
  half-life period t1/2: 10.5 h
[1]; pH 7.8
  half-life period t1/2: 8.5 h
[1]; pH 10
  half-life period t1/2: 19 h

## CC(=O)NC=C[S+]([O-])C1=C(C(=O)O)N2C(=O)C(C(C)(C)O)C2C1 (stereo not shown) [KA-6643-A]
[2]; [17]
  half-life: 33 h
[2]; [18]
  half-life: 144 h
[2]; [19]
  half-life: 187 h
[2]; pH 7.8
  half-life: 110 h
[2]; [20]
  half-life: 2.8 h
Solubility in solvent; [21]
  Solubility in solvent: substantially insoluble
Solubility in solvent; water
  Solubility in solvent: Readily soluble
Bacillus subtilis 6633
  MIC: 0.2 µg/mL (≈ 0.584 µM)
Citrobacter 1 (PC ase)
  MIC: 0.78 µg/mL (≈ 2.28 µM)
Citrobacter 24 (CS ase) [3]
  MIC: 1.56 µg/mL (≈ 4.56 µM)
[4]
  MIC: 0.1 µg/mL (≈ 0.292 µM)
Enterobacter cloacae 977
  MIC: 0.78 µg/mL (≈ 2.28 µM)
[5]
  MIC: 0.2 µg/mL (≈ 0.584 µM)
[6]
  MIC: 0.05 µg/mL (≈ 0.146 µM)
[7]
  MIC: 0.05 µg/mL (≈ 0.146 µM)
[8]
  MIC: 0.05 µg/mL (≈ 0.146 µM)
Hafnia alvei 978
  MIC: 0.2 µg/mL (≈ 0.584 µM)
Klebsiella 25 (PC ase)
  MIC: 0.78 µg/mL (≈ 2.28 µM)
Klebsiella 32 (CS ase)
  MIC: 3.13 µg/mL (≈ 9.14 µM)
[9]
  MIC: 0.2 µg/mL (≈ 0.584 µM)
Proteus inconstans Km115
  MIC: 0.78 µg/mL (≈ 2.28 µM)
Proteus morganii 3168
  MIC: 0.39 µg/mL (≈ 1.14 µM)
Proteus rettgari 13501
  MIC: 1.56 µg/mL (≈ 4.56 µM)
Proteus vulgaris 874
  MIC: 0.39 µg/mL (≈ 1.14 µM)
[10]
  MIC: 6.25 µg/mL (≈ 18.3 µM)
[11]
  MIC: 6.25 µg/mL (≈ 18.3 µM)
Pseudomonas putida 5121
  MIC: 1.56 µg/mL (≈ 4.56 µM)
Serratia marcescens NHL
  MIC: 0.2 µg/mL (≈ 0.584 µM)
[12]
  MIC: 0.39 µg/mL (≈ 1.14 µM)
[13]
  MIC: 0.78 µg/mL (≈ 2.28 µM)
Citrobacter 24 (CS ase) [14]
  Diameter of inhibiting zone: 16.0 mm
[15]
  Diameter of inhibiting zone: 18.0 mm
[16]
  I50 value: 0.5 ng/mL

## CO[C@@]1(NC(=O)Cc2cccs2)C(=O)N2C(C(=O)O)=C(COC(N)=O)CS[C@@H]21 [CFX, cefoxitin, reference compound]
Bacillus subtilis 6633
  MIC: 1.56 µg/mL (≈ 3.65 µM)
Citrobacter 1 (PC ase)
  MIC: > 100 µg/mL
Citrobacter 24 (CS ase) [3]
  MIC: > 100 µg/mL
[4]
  MIC: > 100 µg/mL
Enterobacter cloacae 977
  MIC: > 100 µg/mL
[5]
  MIC: 3.13 µg/mL (≈ 7.32 µM)
[6]
  MIC: 6.25 µg/mL (≈ 14.6 µM)
[7]
  MIC: 6.25 µg/mL (≈ 14.6 µM)
[8]
  MIC: 6.25 µg/mL (≈ 14.6 µM)
Hafnia alvei 978
  MIC: 6.25 µg/mL (≈ 14.6 µM)
Klebsiella 25 (PC ase)
  MIC: 6.25 µg/mL (≈ 14.6 µM)
Klebsiella 32 (CS ase)
  MIC: > 100 µg/mL
[9]
  MIC: 0.78 µg/mL (≈ 1.82 µM)
Proteus inconstans Km115
  MIC: 6.25 µg/mL (≈ 14.6 µM)
Proteus morganii 3168
  MIC: 6.25 µg/mL (≈ 14.6 µM)
Proteus rettgari 13501
  MIC: 1.56 µg/mL (≈ 3.65 µM)
Proteus vulgaris 874
  MIC: 6.25 µg/mL (≈ 14.6 µM)
[10]
  MIC: > 100 µg/mL
[11]
  MIC: > 100 µg/mL
Pseudomonas putida 5121
  MIC: > 100 µg/mL
Serratia marcescens NHL
  MIC: 12.5 µg/mL (≈ 29.2 µM)
[12]
  MIC: 1.56 µg/mL (≈ 3.65 µM)
[13]
  MIC: 1.56 µg/mL (≈ 3.65 µM)

## CC1(C)S[C@@H]2[C@H](NC(=O)[C@H](N)c3ccccc3)C(=O)N2[C@H]1C(=O)O [AB-Pc, aminobenzyl penicillin, reference compound]
Bacillus subtilis 6633
  MIC: ≤ 0.025 µg/mL
Citrobacter 1 (PC ase)
  MIC: > 100 µg/mL
Citrobacter 24 (CS ase) [3]
  MIC: > 100 µg/mL
[4]
  MIC: 6.25 µg/mL (≈ 17.9 µM)
Enterobacter cloacae 977
  MIC: 100 µg/mL (≈ 286 µM)
[5]
  MIC: > 100 µg/mL
[6]
  MIC: > 100 µg/mL
[7]
  MIC: > 100 µg/mL
[8]
  MIC: 6.25 µg/mL (≈ 17.9 µM)
Hafnia alvei 978
  MIC: 50 µg/mL (≈ 143 µM)
Klebsiella 25 (PC ase)
  MIC: > 100 µg/mL
Klebsiella 32 (CS ase)
  MIC: > 100 µg/mL
[9]
  MIC: 12.5 µg/mL (≈ 35.8 µM)
Proteus inconstans Km115
  MIC: 100 µg/mL (≈ 286 µM)
Proteus morganii 3168
  MIC: > 100 µg/mL
Proteus rettgari 13501
  MIC: 0.2 µg/mL (≈ 0.572 µM)
Proteus vulgaris 874
  MIC: > 100 µg/mL
[10]
  MIC: 100 µg/mL (≈ 286 µM)
[11]
  MIC: > 100 µg/mL
Pseudomonas putida 5121
  MIC: > 100 µg/mL
Serratia marcescens NHL
  MIC: 50 µg/mL (≈ 143 µM)
[12]
  MIC: 0.05 µg/mL (≈ 0.143 µM)
[13]
  MIC: 0.78 µg/mL (≈ 2.23 µM)

## CC(=O)NC=C[S+]([O-])C1=C(C(=O)O)N2C(=O)C(C(C)(C)OS(=O)(=O)O)C2C1 (stereo not shown) [KA-6643-B]
[2]; [17]
  half-life: 21.8 h
[2]; [18]
  half-life: 210 h
[2]; [19]
  half-life: 170 h
[2]; pH 7.8
  half-life: 130 h
[2]; [20]
  half-life: 7.9 h
Solubility in solvent; [21]
  Solubility in solvent: substantially insoluble
Solubility in solvent; water
  Solubility in solvent: Readily soluble
Bacillus subtilis 6633
  MIC: 6.25 µg/mL (≈ 14.8 µM)
Citrobacter 1 (PC ase)
  MIC: 6.25 µg/mL (≈ 14.8 µM)
Citrobacter 24 (CS ase) [3]
  MIC: 12.5 µg/mL (≈ 29.6 µM)
[4]
  MIC: 3.13 µg/mL (≈ 7.41 µM)
Enterobacter cloacae 977
  MIC: 6.25 µg/mL (≈ 14.8 µM)
[5]
  MIC: 3.13 µg/mL (≈ 7.41 µM)
[6]
  MIC: 1.56 µg/mL (≈ 3.69 µM)
[7]
  MIC: 3.13 µg/mL (≈ 7.41 µM)
[8]
  MIC: 1.56 µg/mL (≈ 3.69 µM)
Hafnia alvei 978
  MIC: 6.25 µg/mL (≈ 14.8 µM)
Klebsiella 25 (PC ase)
  MIC: 6.25 µg/mL (≈ 14.8 µM)
Klebsiella 32 (CS ase)
  MIC: 12.5 µg/mL (≈ 29.6 µM)
[9]
  MIC: 6.25 µg/mL (≈ 14.8 µM)
Proteus inconstans Km115
  MIC: 12.5 µg/mL (≈ 29.6 µM)
Proteus morganii 3168
  MIC: 12.5 µg/mL (≈ 29.6 µM)
Proteus rettgari 13501
  MIC: 50 µg/mL (≈ 118 µM)
Proteus vulgaris 874
  MIC: 12.5 µg/mL (≈ 29.6 µM)
[10]
  MIC: 25 µg/mL (≈ 59.2 µM)
[11]
  MIC: 50 µg/mL (≈ 118 µM)
Pseudomonas putida 5121
  MIC: 100 µg/mL (≈ 237 µM)
Serratia marcescens NHL
  MIC: 6.25 µg/mL (≈ 14.8 µM)
[12]
  MIC: 6.25 µg/mL (≈ 14.8 µM)
[13]
  MIC: 6.25 µg/mL (≈ 14.8 µM)
[16]
  I50 value: 12.8 ng/mL
